Here are results for 17 compounds from patent publication US9482924B2, “Colored composition and image display structure” (FUJIFILM CORPORATION, priority 2011, dated 2016).

Data set [1] can be described thus: Solubility in n-hexane. Conditions: in n-hexane at 25° C. and 0.1 MPa.
Protocol: Hereinafter, “a solubility in n-hexane at 25° C. and 0.1 MPa” of a pigment is also simply referred to as “solubility”.
The solubility of each azomethine pigment in n-hexane, which is a non-polar solvent, was measured by the following method.
Each pigment was dissolved in n-hexane that had been heated to 50° C. to prepare a saturated solution, and then the saturated solution obtained was left to stand in an environment of 0.1 MPa at 25° C. for 1 hour. The precipitated pigment was filtered and the precipitation amount was measured, thereby calculating the solubility (% by mass) of each pigment in n-hexane at 25° C. and 0.1 MPa.
Data set [2] in a line: Absorption maximum wavelength, absorbance and absorption coefficient of colored solution. The settings on record: n-hexane colored solution; for Absorption coefficient (ε): calculated in accordance with the Lambert-Beer law. In kind it is physicochemical. On the procedure: Azomethine pigments (preparing the above exemplified compounds D-1, D-5, D-11, D-20, D-26, D-38, D-43, D-46, D-49, D-55, D-56, D-57 and D-65 shown in the following Table) and n-hexane as an organic solvent were mixed to prepare a 15% by mass azomethine pigment-n-hexane solution (colored composition), thereby manufacturing 13 kinds of colored solutions.
For the colored solution (colored composition), the absorption maximum wavelength (λmax) and the absorbance were measured with a visible light absorbance spectrometer (UV-1800PC, manufactured by Shimadzu Corporation) and the absorption coefficient (ε) was calculated in accordance with the Lambert-Beer law.

The nature of data set [3]: Measurement of dynamic viscosity. In kind it is physicochemical. The settings on record: solution of 10% by mass of pigment in decane. The protocol: Note that, the dynamic viscosity is a value measured by adjusting a solution at 10% by mass of the pigment in decane to 20° C. using a viscometer (500 TYPE, manufactured by Toki Sangyo Co., Ltd.).
For the azomethine pigments shown in the following Table 7, a solution of 10% by mass of each pigment in decane was prepared and an R-type viscometer (500 TYPE, manufactured by Toki Sangyo Co., Ltd.) was used to measure the viscosity thereof at 20° C.

Data set [4] in a line: Measurement of relative permittivity. In kind it is physicochemical. The settings on record: pigment itself, extrapolated from 5, 7.5 and 10% by mass solutions in n-hexane; 20° C., 40% RH, 1 kHz. The protocol: The relative permittivity is a value obtained by injecting the colored composition into a glass cell having a cell gap of 10 μm to which an indium tin oxide (ITO) transparent electrode is attached and measuring, at 20° C. and 40% RH, the electric capacitance of the cell with the colored composition thus-obtained using a TYPE 2353LCR METER (measuring frequency: 1 kHz) manufactured by NF Co., Ltd.
The azomethine pigments shown in the following Table 7 were prepared and solutions of 5% by mass, 7.5% by mass and 10% by mass of each pigment dissolved in n-hexane (all were colored solutions) were prepared. Each colored solution obtained was injected into a glass cell having a cell gap of 10 μm to which an indium tin oxide (ITO) transparent electrode was attached. For each of the glass cells, the electric capacitance was measured (measuring frequency: 1 kHz). Further, a cell for reference was prepared by injecting only n-hexane into a glass cell which was the same kind of glass cell as described above, and the electric capacitance of the cell for reference was also measured. The electric capacitance of the cell obtained was measured at 20° C. and 40% RH using a type 2353LCR meter (measuring frequency: 1 kHz) manufacture by NF Co., Ltd.
The relative permittivity of each colored solution was obtained by the above measurement, and the relative permittivity of each azomethine pigment itself was calculated from the above relative permittivity by extrapolation.

Regarding `CCCCCCCCN(CCCCCCCC)c1ccc(N=C2C(=O)N(c3ccccc3)N=C2C)c(C)c1` [Pigment D-1], in data set [1], the “Solubility (% by mass)” value amounted to 9.5 % by mass. In addition, in data set [2], the “Absorption maximum wavelength [λmax]” value was found to be 500 nm and the “Absorption coefficient (ε)” value is listed as 6.05 × 10^4. Further, in data set [3], the “Viscosity (20° C.)” value is 1.3 mPa · s. The Relative permittivity in data set [4] is 8.6.

For `CCCCCCCCN1N=C(C(C)(C)C)C(=Nc2ccc(N(CC)CC)cc2C)C1=O` [Pigment D-5], in data set [1], the “Solubility (% by mass)” value is 8.5 % by mass. In data set [2], the “Absorption maximum wavelength [λmax]” value was 502 nm and the “Absorption coefficient (ε)” value is 5.20 × 10^4.

With `CCCCCCN(CCCCCC)c1ccc(N=C2C(=O)N(c3ccccc3)N=C2C(C)(C)C)c(C)c1` [Pigment D-11], in data set [1], the “Solubility (% by mass)” value came out at 1.1 % by mass. Moreover, in data set [2], the “Absorption maximum wavelength [λmax]” value was determined as 502 nm and the “Absorption coefficient (ε)” value is given as 5.60 × 10^4.

As to `CCCCCCCCOc1cc(N(CCCC)CCCC)ccc1N=C1C(=O)ON=C1c1ccccc1` [Pigment D-20], in data set [2], the “Absorption maximum wavelength [λmax]” value was found to be 480 nm and the “Absorption coefficient (ε)” value was 4.80 × 10^4. In addition, the “Viscosity (20° C.)” value in data set [3] is on record as 1.2 mPa · s. In addition, the Relative permittivity in data set [4] was 8.8.

In the case of `CCCCCCCCNC(=O)C1=CC(=Nc2ccc(N(CCCCCCCC)CCCCCCCC)cc2)C=C(C)C1=O` [Pigment D-26], in data set [2], the “Absorption maximum wavelength [λmax]” value is recorded as 626 nm and the “Absorption coefficient (ε)” value is reported as 2.8 × 10^4. In addition, the “Viscosity (20° C.)” value in data set [3] amounted to 1.4 mPa · s. In data set [4], the Relative permittivity was 6.

For the compound `CCCCCCCCCCCCCCCCNC(=O)C1=CC(=Nc2ccc(N(CC)CC)cc2CC)c2ccccc2C1=O` [Pigment D-38], in data set [2], the “Absorption maximum wavelength [λmax]” value was found to be 630 nm and the “Absorption coefficient (ε)” value is 2.9 × 10^4. The “Viscosity (20° C.)” value in data set [3] worked out at 1.5 mPa · s. For the same compound, in data set [4], the Relative permittivity was 4.4.

Take `CCCCCCCCCCCCCCCCCCNC(=O)C1=CC(=Nc2ccc(N(CC)CC)cc2OC)c2ccccc2C1=O` [Pigment D-43]: in data set [2], the “Absorption maximum wavelength [λmax]” value came out at 658 nm and the “Absorption coefficient (ε)” value is on record as 2.6 × 10^4. In addition, in data set [3], the “Viscosity (20° C.)” value worked out at 1.5 mPa · s. Further, the Relative permittivity in data set [4] is listed as 4.7.

On to `CCCCCCN(CCCCCC)c1ccc(N=C2C=C(C(=O)Nc3ccccc3)C(=O)c3ccccc32)c(C)c1` [Pigment D-46], for which, in data set [2], the “Absorption maximum wavelength [λmax]” value was 635 nm and the “Absorption coefficient (ε)” value was 2.8 × 10^4.

As for `CCCCCCCCN(CCCCCCCC)c1ccc(N=C2C(C(C)(C)C)=Nn3nc(-c4ccccc4)nc32)c(C)c1` [Pigment D-49], the “Solubility (% by mass)” value in data set [1] stood at 11 % by mass. In data set [2], the “Absorption maximum wavelength [λmax]” value is on record as 518 nm and the “Absorption coefficient (ε)” value was 7.2 × 10^4. Moreover, the “Viscosity (20° C.)” value in data set [3] is on record as 1.2 mPa · s. Besides, the Relative permittivity in data set [4] was 6.7.

As for `CCCCCCOc1cc(N(CCCCCC)CCCCCC)ccc1N=C1C(C#N)=Nn2nc(C(C)(C)C)nc21` [Pigment D-56], in data set [1], the “Solubility (% by mass)” value was 3.5 % by mass. In data set [2], the “Absorption maximum wavelength [λmax]” value came to 550 nm and the “Absorption coefficient (ε)” value is 7.2 × 10^4.

Take `CCCCCCCCN1CCc2cc(/N=C3/C(C)=Nn4nc(C(C)CNC(=O)C(CCCCCC)Oc5ccc(C(C)(C)CC)cc5C(C)(C)CC)nc43)ccc21` [Pigment D-57]: in data set [1], the “Solubility (% by mass)” value came to 12.3 % by mass. Also, in data set [2], the “Absorption maximum wavelength [λmax]” value turned out to be 540 nm and the “Absorption coefficient (ε)” value is 7.55 × 10^4. In data set [3], the “Viscosity (20° C.)” value is recorded as 1.2 mPa · s. For the same compound, the Relative permittivity in data set [4] was 6.2.

On to `CCCCCCN(CCCCCC)c1cc(C)c(N=C2C(C#N)=C(C(=O)OC3C(C(C)(C)C)CC(C)CC3C(C)(C)C)c3nc(C(C)(C)C)nn32)c(C)c1` [Pigment D-65], for which the “Solubility (% by mass)” value in data set [1] is given as at least 15.0 % by mass. Besides, in data set [2], the “Absorption maximum wavelength [λmax]” value is 725 nm and the “Absorption coefficient (ε)” value is listed as 6.8 × 10^4.

Regarding `CCN(CC)c1ccc(N=C2C(=O)N(c3ccccc3)N=C2C)c(C)c1` [Pigment D-101, reference compound], the “Solubility (% by mass)” value in data set [1] is given as 0.05 or less % by mass.

On to `CCN(CC)c1ccc(N=C2C(=O)ON=C2C(C)(C)C)cc1` [Pigment D-102, reference compound], for which, in data set [1], the “Solubility (% by mass)” value is on record as at most 0.05 % by mass.

Regarding `CCN(CC)c1ccc(N=C2C=C(NC(C)=O)C(=O)C(Cl)=C2C)c(C)c1` [Pigment D-103, reference compound], the “Solubility (% by mass)” value in data set [1] is reported as at most 0.05 % by mass.

For `CCCCN(CCCC)c1ccc(N=C2C=C(C(=O)NC)C(=O)c3ccccc32)cc1` [Pigment D-104, reference compound], the “Solubility (% by mass)” value in data set [1] is at most 0.05 % by mass.

`CCN(CC)c1ccc(/N=C2\C(C#N)=C(C(=O)OC)c3nc(-c4ccc(C(C)(C)C)cc4)nn32)c(C)c1` [Pigment D-106, reference compound]: the “Solubility (% by mass)” value in data set [1] is on record as at most 0.05 % by mass.
